We go through ten compounds from PubChem BioAssay (NCI).

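Test compounds were applied to cells in 96-well plates for 48 hours at 5 doses. GI50 marks 50% less growth. The concentration for full growth arrest is given as TGI.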 Some results are limits rather than exact numbers.

Test systems include M14 melanoma; SK-OV-3 ovarian; SF-268 CNS; EKVX NSCLC; SK-MEL-28 melanoma; PC-3 prostate; SW-620 colon; NCI/ADR-RES ovarian; NCI-H23 lung; OVCAR-4 ovarian.
What all share (test): inhibition of tumour cell growth, NCI panel, 48 h

For `CC(C)(C)NCC(O)COc1c(Br)c(Br)c(Br)c2c1OC(C)(C)C2` (stereo unspecified), the GI50 in the assay with M14 melanoma is 1.81 µM; with SK-OV-3 ovarian, 1.83 µM; with SF-268 CNS, 1.73 µM; with EKVX NSCLC, 1.61 µM; with SK-MEL-28 melanoma, 1.81 µM; in the assay with PC-3 prostate it was 1.66 µM. In addition, in the assay with SW-620 colon, the GI50 was 1.7 µM. The TGI was 3.66 µM in the assay with M14 melanoma; 3.3 µM in the assay on SK-OV-3 ovarian; 3.38 µM in the assay with SF-268 CNS; 3.02 µM with EKVX NSCLC; 3.29 µM in the assay on SK-MEL-28 melanoma; 3.18 µM in the assay on PC-3 prostate. The TGI in the assay on SW-620 colon was 3.1 µM.

Regarding `Cc1cc(NCc2cc(Nc3ccnc4cc(Cl)ccc34)ccc2F)nc(N2CCOCC2)n1`, the GI50 is 1.7 µM in the assay on SK-OV-3 ovarian; 3.08 µM in the assay with SF-268 CNS; 3.18 µM in the assay with EKVX NSCLC; 2.34 µM in the assay with NCI/ADR-RES ovarian; 2.43 µM in the assay on NCI-H23 lung; 2.28 µM in the assay with PC-3 prostate. Besides, the GI50 with SW-620 colon was 1.81 µM. Besides, the TGI was 3.36 µM in the assay on SK-OV-3 ovarian; 18 µM in the assay with SF-268 CNS; 23.9 µM in the assay on EKVX NSCLC; 6.97 µM with NCI/ADR-RES ovarian; 7.28 µM in the assay with NCI-H23 lung; 7.65 µM in the assay on PC-3 prostate. In the assay on SW-620 colon, this compound returned a TGI of 4.7 µM.

Consider `O=C(NN1C(=O)CSC1c1cccc(Cl)c1)C(O)c1ccccc1` (stereo unspecified), for which the GI50 in the assay on OVCAR-4 ovarian was 66.7 µM; with M14 melanoma, > 100 µM; with SK-OV-3 ovarian it was > 100 µM; in the assay on SF-268 CNS it was > 100 µM; in the assay with EKVX NSCLC it was 64.5 µM; in the assay with SK-MEL-28 melanoma it was > 100 µM. Further, the GI50 is 56.3 µM in the assay with NCI-H23 lung, 60.6 µM in the assay with PC-3 prostate and > 100 µM with SW-620 colon. Also, the TGI in the assay on OVCAR-4 ovarian, with M14 melanoma, with SK-OV-3 ovarian, with SF-268 CNS, in the assay on EKVX NSCLC and in the assay on SK-MEL-28 melanoma was > 100 µM each time. The TGI in the assay on NCI-H23 lung, in the assay on PC-3 prostate and with SW-620 colon was > 100 µM in each case.

On to `COc1ccc(C(=O)c2sc3nc(-c4ccccc4OC)ccc3c2N)cc1OC`, for which the GI50 with OVCAR-4 ovarian was 7.49 µM; in the assay on M14 melanoma, 6.05 µM; with SK-OV-3 ovarian, 30.6 µM; with SF-268 CNS, 11.9 µM; in the assay on NCI/ADR-RES ovarian it was 5.05 µM; in the assay with SK-MEL-28 melanoma, > 100 µM. The results for the GI50 in the assay with NCI-H23 lung, in the assay with PC-3 prostate and in the assay with SW-620 colon were 50.1 µM, 2.84 µM and > 100 µM, respectively. For the same compound, the TGI in the assay on OVCAR-4 ovarian, with M14 melanoma, with SK-OV-3 ovarian, in the assay with SF-268 CNS, in the assay on NCI/ADR-RES ovarian and in the assay on SK-MEL-28 melanoma was > 100 µM throughout. The TGI in the assay with NCI-H23 lung is > 100 µM; in the assay with PC-3 prostate, 35.1 µM; with SW-620 colon it was > 100 µM.

For `CN(C)N1C(=O)SCC(c2ccccc2)(c2ccccc2)C1=O`, the TGI with M14 melanoma, in the assay on SK-OV-3 ovarian, with SF-268 CNS, in the assay on EKVX NSCLC, in the assay on NCI/ADR-RES ovarian and with SK-MEL-28 melanoma was > 100 µM in each case. The TGI in the assay with NCI-H23 lung, with PC-3 prostate and in the assay with SW-620 colon was > 100 µM in each case.

As to `COc1ccc(-c2nc(-c3nc4cc(Cl)c(F)cc4[nH]3)c3ccccn23)cc1`, the GI50 in the assay with OVCAR-4 ovarian was 7.93 µM; with M14 melanoma it was 5.15 µM; with SK-OV-3 ovarian, > 100 µM; in the assay with SF-268 CNS, 9.11 µM; in the assay with NCI/ADR-RES ovarian, 5.5 µM; with SK-MEL-28 melanoma, > 100 µM. The GI50 with NCI-H23 lung is 29.1 µM; in the assay on PC-3 prostate, 4.58 µM; in the assay on SW-620 colon it was 5.38 µM. Besides, the TGI in the assay with OVCAR-4 ovarian, in the assay with M14 melanoma, with SK-OV-3 ovarian, in the assay with SF-268 CNS, with NCI/ADR-RES ovarian and in the assay on SK-MEL-28 melanoma was > 100 µM throughout. In addition, the TGI in the assay on NCI-H23 lung, in the assay on PC-3 prostate and in the assay on SW-620 colon was > 100 µM each time.

As for `CCOC(=O)c1ccc(NC(=O)NC2=NCCS2)cc1`, the GI50 is 56.1 µM with OVCAR-4 ovarian; 2.66 µM in the assay with M14 melanoma; 1.03 µM with SK-OV-3 ovarian; 3.5 µM in the assay on SF-268 CNS; 0.505 µM in the assay with NCI/ADR-RES ovarian; 64.9 µM in the assay on SK-MEL-28 melanoma. The GI50 in the assay on NCI-H23 lung was 3.61 µM; with PC-3 prostate it was 0.451 µM; with SW-620 colon it was 22.9 µM. In addition, the TGI in the assay on OVCAR-4 ovarian is > 100 µM; in the assay with M14 melanoma, > 100 µM; in the assay with SK-OV-3 ovarian it was 7.76 µM; with SF-268 CNS, > 100 µM; in the assay on NCI/ADR-RES ovarian, > 49.6 µM; in the assay with SK-MEL-28 melanoma it was > 100 µM. Further, the TGI in the assay on NCI-H23 lung, in the assay on PC-3 prostate and with SW-620 colon was > 100 µM throughout.

In the case of `CO[C@H]1/C=C/O[C@@]2(C)Oc3c(C)c(O)c4c(O)c(c(/C=N/N5CCN(C)CC5)c(O)c4c3C2=O)NC(=O)/C(C)=C\C=C\[C@H](C)[C@H](O)[C@@H](C)[C@@H](O)[C@@H](C)[C@H](OC(C)=O)[C@@H]1C`, the TGI with M14 melanoma, in the assay with SK-OV-3 ovarian, in the assay on EKVX NSCLC, with NCI/ADR-RES ovarian, in the assay on SK-MEL-28 melanoma and in the assay with PC-3 prostate was > 100 µM in each case. In addition, the TGI in the assay on SW-620 colon is > 100 µM.

Turning to `Cn1c(=O)n(C)c2cc(CNCCNc3ccnc4cc(Cl)ccc34)ccc21`, the GI50 is 26.1 µM in the assay with OVCAR-4 ovarian; 72.7 µM in the assay on SK-OV-3 ovarian; 29.4 µM in the assay on SF-268 CNS; > 100 µM with NCI/ADR-RES ovarian; 16 µM in the assay with SK-MEL-28 melanoma; 48.8 µM with NCI-H23 lung. The GI50 with PC-3 prostate and in the assay with SW-620 colon was 34.6 µM in each case. In addition, the TGI in the assay on OVCAR-4 ovarian was > 100 µM; in the assay with SK-OV-3 ovarian, > 100 µM; with SF-268 CNS, > 100 µM; in the assay on NCI/ADR-RES ovarian it was > 100 µM; with SK-MEL-28 melanoma it was 30.2 µM; with NCI-H23 lung, > 100 µM. Moreover, the TGI with PC-3 prostate and in the assay on SW-620 colon was > 100 µM in each case.

Regarding `CC(/C=C/C(O)=C1/C(=O)CNC1=O)=C\[C@@H](C)[C@H]1O[C@@]2(C)O[C@H](C(=O)[C@@H]3O[C@@]32C)[C@@H]1C`, the TGI in the assay on M14 melanoma is > 100 µM; in the assay on SK-OV-3 ovarian it was 46.8 µM; in the assay on SF-268 CNS, 43.9 µM; in the assay on EKVX NSCLC, 39.2 µM; in the assay with NCI/ADR-RES ovarian, 63.7 µM; in the assay on SK-MEL-28 melanoma, 38.7 µM. The TGI in the assay on NCI-H23 lung was 59 µM; in the assay with PC-3 prostate, 31.8 µM; in the assay with SW-620 colon, > 100 µM.
